Several values for one entry are separate records, joined by “and”; a condition that tells them apart may be missing. Identical values can stand only once.
Key:
[1] = In vitro membrane permeation test, Drug 1 (Example 6); assay type: physicochemical; settings: 37° C.
Protocol: Dispersion 14 was evaluated in vitro using a membrane permeation test as follows. An Accurel® PP 1E microporous polypropylene membrane was obtained from Membrana GmbH (Wuppertal, Germany). The membrane was washed in isopropyl alcohol and rinsed in methanol in a sonicating bath for 1 minute at ambient temperature, and then allowed to air dry at ambient temperature. The feed side of the membrane was then plasma-treated to render it hydrophilic by placing a sample of the membrane in a plasma chamber. The atmosphere of the plasma chamber was saturated with water vapor at a pressure of 550 mtorr. A plasma was then generated using radio frequency (RF) power inductively coupled into the chamber via annular electrodes at a power setting of 50 watts for 45 seconds. The contact angle of a drop of water placed on the surface of the plasma-treated membrane was about 40°. […]
To form the feed solution, a 1.2 mg sample of the dispersion was weighed into the feed reservoir. […] Samples were then diluted in 250 μL IPA and analyzed using HPLC. […]
The maximum flux of drug across the membrane (in units of μg/cm^2-min) was determined by performing a least-squares fit to the data from 0 to 60 minutes to obtain the slope, multiplying the slope by the permeate volume (5 mL), and dividing by the membrane area (4.9 cm^2). […]

[2] = In vitro dissolution test, microcentrifuge method, PBS (Example 1); assay type: physicochemical; settings: PBS pH 6.5, 37° C.; for AUC90: 90 minutes; for C1200: concentration at 1200 minutes; for MDC,90: maximum concentration during first 90 minutes
Protocol: Dispersions 2, 3, 4, and 10 were evaluated in in vitro dissolution tests using a microcentrifuge method. In this method, 3.6 mg of the spray-dried dispersions was added to a 2-mL microcentrifuge tube. The tube was placed in a 37° C. sonicating bath, and 1.8 mL of phosphate-buffered saline (PBS) at pH 6.5 and 290 mOsm/kg was added. The samples were quickly mixed using a vortex mixer for about 90 seconds. The theoretical maximum concentration of drug if all the drug dissolved was 1000 μg/mL. The samples were centrifuged at 13,000 G at 37° C. for 1 minute. The resulting supernatant solution was then sampled (100 μL) and diluted with 200 μL methanol and then analyzed by HPLC. The tubes were then mixed on the vortex mixer and allowed to stand undisturbed at 37° C. until the next sample. Samples were collected at 4, 10, 20, 40, 90, and 1200 minutes.
As controls, in vitro tests were performed using the procedure described above, except that 0.18 mg of crystalline drug was placed in a microcentrifuge tube and mixed with 1.8 mL of PBS.

[3] = Microcentrifuge dissolution test in MFD solution, crystallization inhibition (Example 5); assay type: physicochemical; settings: 37° C.
Protocol: First, Dispersions 12 and 13 were evaluated in an in vitro dissolution test using the microcentrifuge method described in Example 1 except that 2.04 mg of the dispersions were separately added to microcentrifuge tubes in duplicate. A 1.8-mL sample of a model fasted duodenal (MFD) solution was then added to the tube and the samples were quickly mixed using a vortex mixer for about 90 seconds. The theoretical maximum concentration of drug if all the drug dissolved was about 100 μgA/mL, where “μgA” refers to the active micrograms of Drug 5. Samples were collected and analyzed by HPLC using a Kromasil C4 column (250 mm×4.6 mm). The mobile phase consisted of 0.2 vol % H3PO4/acetonitrile in a volume ratio of 45/55. Drug concentration was calculated by comparing UV absorbance at 245 nm to the absorbance of Drug 5 standards.
As a control, […] of Drug 5 (in the HCl salt form) was added to a separate microcentrifuge tube so that the concentration of drug if all of the drug had dissolved would have been about 200 μgA/mL. […] The MDC90 values provided by Dispersions 12 and 13 were 3.5-fold and 3.0-fold that of the crystalline Drug 5 control, while the AUC90 values were 2.6-fold and 2.7-fold that of the crystalline control. Furthermore, the concentration of dissolved Drug 5 after 1200 minutes (C1200) was higher for Dispersions 12 and 13 than the crystalline control, with Dispersions 12 and 13 providing C1200 values that were 1.7- and 1.4-fold that of the crystalline control, respectively.

[4] = Solubility of drug in polymer by double-scan DSC (Example 3); assay type: physicochemical
Protocol: The solubilities of drug in HPMCAS polymers were determined using a double-scan differential scanning calorimetry (DSC) analysis of the dispersions as follows. The DSC analysis was carried out on either a TA Instruments DSC2920 or a Mettler DSC 821, calibrated with indium. DSC samples were prepared by weighing 2-4 mg of the dispersion in an aluminum pan with a pinhole. The sample was heated under nitrogen, at a rate of 5° C. per minute from about −20° C. to about 140° C. […] Heating above the Tg allows the drug to phase separate from the dispersion if the drug solubility in the polymer is lower than the drug loading.
The sample was then cooled and the sample was scanned a second time using the procedures outlined above. […] The amount of phase separated amorphous drug was estimated by comparing the magnitude of the heat capacity for the phase separated amorphous drug with the heat capacity for pure amorphous drug controls. […]

[5] = Aqueous solubility of the drugs used in the examples; settings: water

SMILES: CCOC(=O)N1c2ccc(C(F)(F)F)cc2[C@@H](N(Cc2cc(C(F)(F)F)cc(C(F)(F)F)c2)C(=O)OC)C[C@H]1CC [Crystalline Drug 1, [2R,4S]4-[(3,5-bis-trifluoromethyl-benzyl)-methoxycarbonyl-amino]-2-ethyl-6-trifluoromethyl-3,4-dihydro-2H-quinoline-1-carboxylic acid ethyl ester]
- Maximum Flux of Drug 1 ([1]; feed solution 0.5% NaTC/POPC (MFD), permeate 20 wt % decanol in decane): 0.076 μg/cm^2-min
- Maximum Flux of Drug 1 ([1]; feed solution 2.0 wt % NaTC/POPC (fed state model)): 0.13 μg/cm^2-min
- AUC90 [2]: <88 min-μg/mL
- C1200 [2]: <1 µg/mL
- MDC,90 [2]: <1 µg/mL

SMILES: CC[C@@H]1C[C@H](N(Cc2cc(C(F)(F)F)cc(C(F)(F)F)c2)C(=O)OC)c2cc(C(F)(F)F)ccc2N1C(=O)OC(C)C [Crystalline Drug 3, [2R,4S]4-[(3,5-bis-trifluoromethyl-benzyl)-methoxycarbonyl-amino]-2-ethyl-6-trifluoromethyl-3,4-dihydro-2H-quinoline-1-carboxylic acid isopropyl ester]
- AUC90 [2]: <88 min-μg/mL
- C1200 [2]: <1 µg/mL
- MDC,90 [2]: <1 µg/mL

SMILES: O=C1Cc2cc(CCN3CCN(c4nsc5ccccc45)CC3)c(Cl)cc2N1 [Crystalline Drug 5]
- AUC90 [3]: 1,700 min-μg/mL
- MDC,90 [3]: 22 µg/mL
- C1200 ([3]; 1200 minutes): 9 µg/mL

SMILES: CCOC(=O)N1c2ccc(C(F)(F)F)cc2[C@@H](N(Cc2cc(C(F)(F)F)cc(C(F)(F)F)c2)C(=O)OC)C[C@H]1CC [Drug 1, [2R,4S]4-[(3,5-bis-trifluoromethyl-benzyl)-methoxycarbonyl-amino]-2-ethyl-6-trifluoromethyl-3,4-dihydro-2H-quinoline-1-carboxylic acid ethyl ester]
- solubility of the drug in the polymer ([4]; in the H grade of HPMCAS): 35-40 wt %
- solubility of the drug in the polymer ([4]; in the M grade of HPMCAS): 25 to 30 wt %
- solubility [5]: < 0.04 µg/mL

SMILES: CC[C@@H]1C[C@H](N(Cc2cc(C(F)(F)F)cc(C(F)(F)F)c2)C(C)=O)c2cc(C(F)(F)F)ccc2N1C(=O)OC(C)C [Drug 2, [2R,4S]4-[acetyl-(3,5-bis-trifluoromethyl-benzyl)-amino]-2-ethyl-6-trifluoromethyl-3,4-dihydro-2H-quinoline-1-carboxylic acid isopropyl ester]
- solubility [5]: < 1 µg/mL

SMILES: CC[C@@H]1C[C@H](N(Cc2cc(C(F)(F)F)cc(C(F)(F)F)c2)C(=O)OC)c2cc(C(F)(F)F)ccc2N1C(=O)OC(C)C [Drug 3, [2R,4S]4-[(3,5-bis-trifluoromethyl-benzyl)-methoxycarbonyl-amino]-2-ethyl-6-trifluoromethyl-3,4-dihydro-2H-quinoline-1-carboxylic acid isopropyl ester]
- solubility [5]: < 1 µg/mL

SMILES: CCc1cc(Oc2cccc(N(Cc3cccc(OC(F)(F)C(F)F)c3)C[C@@H](O)C(F)(F)F)c2)ccc1Cl [Drug 4, (2R)-3-[[3-(4-chloro-3-ethylphenoxy)phenyl][[3-(1,1,2,2-tetrafluoroethoxy)phenyl]methyl]amino]-1,1,1-trifluoro-2-propanol]
- solubility [5]: < 1 µg/mL

SMILES: O=C1Cc2cc(CCN3CCN(c4nsc5ccccc45)CC3)c(Cl)cc2N1 [Drug 5]
- solubility [5]: < 0.1 µg/mL and ~10 µg/mL

From patent US8940800B2, “Pharmaceutical compositions with enhanced performance” (Bend Research, Inc., priority 2004, dated 2015)
